Reference: patent publication US10584115B2, “Substituted pyridine and pyrazine BMI-1 inhibitors” (PTC Therapeutics, Inc., priority 2013, dated 2020)

Test system: not given
Experiment: not given
Details: not given

Compound | melting point [°C]
CS(=O)(=O)c1ccc(Nc2cncc(-c3c(C(F)(F)F)nc4ccccn34)n2)cc1 [compound 68, N-[4-(methylsulfonyl)phenyl]-6-[2-(trifluoromethyl)imidazo[1,2-a]pyridin-3-yl]pyrazin-2-amine] | 256 to 258
CCn1nc(C)c(-c2cncc(Nc3ccc(OC(F)(F)F)cc3)n2)c1C [compound 84, 6-(1-ethyl-3,5-dimethyl-1H-pyrazol-4-yl)-N-[4-(trifluoromethoxy)phenyl]pyrazin-2-amine] | 142 to 143

Test system: Bmi-1 protein
Experiment: Sandwich ELISA Assay (Bmi-1 protein level in HT-1080 cells after compound treatment)
Format: cell-based
Details: Table 1, Bmi-1 sandwich ELISA, read-out: ELISA EC50 value for Bmi-1 protein
Summary of the method: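 HT-1080 cells exposed to compounds for 40–48 h at 37 °C (0.5% DMSO final), then lysed. Bmi-1 in lysates measured by sandwich ELISA (mouse monoclonal capture, rabbit anti-Bmi-1 detection, HRP anti-rabbit, TMB), read at OD450 with OD570 reference against a recombinant Bmi-1 standard curve (0–8000 pg/mL).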

Compound | EC50 [nM]
CCc1nn2ccccc2c1-c1cncc(Nc2ccc(F)cc2)n1 [compound 630, 6-(2-ethylpyrazolo[1,5-a]pyridin-3-yl)-N-(4-fluorophenyl)pyrazin-2-amine] | 100 to 3000
CCc1nn2ccccc2c1-c1cncc(Nc2ccccc2)n1 [compound 631, 6-(2-ethylpyrazolo[1,5-a]pyridin-3-yl)-N-phenylpyrazin-2-amine] | 100 to 3000
CCc1nn2ccccc2c1-c1cncc(Nc2cccc(Cl)c2)n1 [compound 643, N-(3-chlorophenyl)-6-(2-ethylpyrazolo[1,5-a]pyridin-3-yl)pyrazin-2-amine] | 100 to 3000
Cc1nc2ccc(F)cn2c1-c1cc(C#N)cc(Nc2cccc(F)c2)n1 [compound 651, 2-(6-fluoro-2-methylimidazo[1,2-a]pyridin-3-yl)-6-[(3-fluorophenyl)amino}pyridine-4-carbonitrile] | 100 to 3000
COc1ccc(Nc2cc(C)cc(-n3c(C)nc4ccccc43)n2)cc1 [compound 655, N-(4-methoxyphenyl)-4-methyl-6-(2-methyl-1H-benzimidazol-1-yl)pyridin-2-amine] | 100 to 3000
Cc1nc2ccccc2n1-c1cncc(Nc2ccc(C(C)(C)C)cc2)n1 [compound 659, N-(4-tert-butylphenyl)-6-(2-methyl-1H-benzimidazol-1-yl)pyrazin-2-amine] | 100 to 3000
CCc1ccc(Nc2cncc(-n3c(C)nc4ccccc43)n2)cc1 [compound 662, N-(4-ethylphenyl)-6-(2-methyl-1H-benzimidazol-1-yl)pyrazin-2-amine] | 100 to 3000
CCCc1ccc(Nc2cncc(-n3c(C)nc4ccccc43)n2)cc1 [compound 663, 6-(2-methyl-1H-benzimidazol-1-yl)-N-(4-propylphenyl)pyrazin-2-amine] | 10 to 100
CCOc1ccc(Nc2cncc(-n3c(C)nc4ccccc43)n2)cc1 [compound 664, N-(4-ethoxyphenyl)-6-(2-methyl-1H-benzimidazol-1-yl)pyrazin-2-amine] | 100 to 3000
C#Cc1ccc(Nc2cncc(-n3c(C)nc4ccccc43)n2)cc1 [compound 665, N-(4-ethynylphenyl)-6-(2-methyl-1H-benzimidazol-1-yl)pyrazin-2-amine] | 100 to 3000
C=Cc1ccc(Nc2cncc(-n3c(C)nc4ccccc43)n2)cc1 [compound 666, N-(4-ethenylphenyl)-6-(2-methyl-1H-benzimidazol-1-yl)pyrazin-2-amine] | 100 to 3000
Fc1ccc2nc(C(F)(F)F)c(-c3cncc(Nc4ccccc4)n3)n2c1 [compound 667, 6-[6-fluoro-2-(trifluoromethyl)imidazo[1,2-a]pyridin-3-yl]-N-phenylpyrazin-2-amine] | 100 to 3000
N#Cc1ccc(Nc2cncc(-c3c(C(F)(F)F)nc4ccc(F)cn34)n2)cc1 [compound 668, 4-({6-[6-fluoro-2-(trifluoromethyl)imidazo[1,2-a]pyridin-3-yl]pyrazin-2-yl}amino)benzonitrile] | 100 to 3000
Fc1ccc(Nc2cncc(-c3c(C(F)(F)F)nc4ccc(F)cn34)n2)cc1 [compound 669, N-(4-fluorophenyl)-6-[6-fluoro-2-(trifluoromethyl)imidazo[1,2-a]pyridin-3-yl]pyrazin-2-amine] | 100 to 3000
Fc1ccc2nc(C(F)(F)F)c(-c3cncc(Nc4ccc(Cl)cc4)n3)n2c1 [compound 670, N-(4-chlorophenyl)-6-[6-fluoro-2-(trifluoromethyl)imidazo[1,2-a]pyridin-3-yl]pyrazin-2-amine] | 100 to 3000
Cc1ccc(Nc2cncc(-c3c(C(F)(F)F)nc4ccc(F)cn34)n2)cc1 [compound 671, 6-[6-fluoro-2-(trifluoromethyl)imidazo[1,2-a]pyridin-3-yl]-N-(4-methylphenyl)pyrazin-2-amine] | 100 to 3000
COc1ccc2nc(C)c(-c3cc(C#N)cc(Nc4ccc(C)cc4)n3)n2c1 [compound 673, 2-(6-methoxy-2-methylimidazo[1,2-a]pyridin-3-yl)-6-[(4-methylphenyl)amino]pyridine-4-carbonitrile] | 100 to 3000
COc1ccc2nc(C)c(-c3cc(C#N)cc(Nc4ccc(F)cc4)n3)n2c1 [compound 674, 2-[(4-fluorophenyl)amino]-6-(6-methoxy-2-methylimidazo[1,2-a]pyridin-3-yl)pyridine-4-carbonitrile] | 100 to 3000
COc1ccc2nc(C)c(-c3cc(C#N)cc(Nc4ccccc4)n3)n2c1 [compound 675, 2-(6-methoxy-2-methylimidazo[1,2-a]pyridin-3-yl)-6-(phenylamino)pyridine-4-carbonitrile] | 10 to 100
COc1ccc2nc(C)c(-c3cc(C#N)cc(Nc4ccc(Cl)cc4)n3)n2c1 [compound 676, 2-[(4-chlorophenyl)amino]-6-(6-methoxy-2-methylimidazo[1,2-a]pyridin-3-yl)pyridine-4-carbonitrile] | 10 to 100
COc1ccc2nc(C)c(-c3cc(C#N)cc(Nc4ccc(OC(F)F)cc4)n3)n2c1 [compound 677, 2-{[4-(difluoromethoxy)phenyl]amino}-6-(6-methoxy-2-methylimidazo[1,2-a]pyridin-3-yl)pyridine-4-carbonitrile] | 100 to 3000
Cc1nc2cc(F)c(F)cc2n1-c1cncc(Nc2ccc(C(F)(F)F)cc2)n1 [compound 683, 6-(5,6-difluoro-2-methyl-1H-benzimidazol-1-yl)-N-[4-(trifluoromethyl)phenyl]pyrazin-2-amine] | 10 to 100

Other lines, results leading:

EC50 [nM] | Compound
1 to 10 | CCn1nc(C)c(-c2cncc(Nc3ccc(OC(F)(F)F)cc3)n2)c1C [compound 84, 6-(1-ethyl-3,5-dimethyl-1H-pyrazol-4-yl)-N-[4-(trifluoromethoxy)phenyl]pyrazin-2-amine]
< 1 | CCc1nn2ccccc2c1-c1cncc(Nc2ccc(C)cc2)n1 [compound 628, 6-(2-ethylpyrazolo[1,5-a]pyridin-3-yl)-N-(4-methylphenyl)pyrazin-2-amine]
1 to 10 | CCc1nn2ccccc2c1-c1cncc(Nc2ccc(Cl)cc2)n1 [compound 629, N-(4-chlorophenyl)-6-(2-ethylpyrazolo[1,5-a]pyridin-3-yl)pyrazin-2-amine]
1 to 10 | Cc1ccc(Nc2cc(N)cc(-n3c(C)nc4ccccc43)n2)cc1 [compound 632, 6-(2-methyl-1H-benzimidazol-1-yl)-N^2-(4-methylphenyl)pyridine-2,4-diamine]
10 to 100 | Cc1nc2ccccc2n1-c1cc(N)cc(Nc2ccc(Cl)cc2)n1 [compound 633, N^2-(4-chlorophenyl)-6-(2-methyl-1H-benzimidazol-1-yl)pyridine-2,4-diamine]
10 to 100 | CCc1nn2ccccc2c1-c1cncc(Nc2cccc(OC)c2)n1 [compound 640, 6-(2-ethylpyrazolo[1,5-a]pyridin-3-yl)-N-(3-methoxyphenyl)pyrazin-2-amine]
10 to 100 | CCc1nn2ccccc2c1-c1cncc(Nc2ccc(C#N)cc2)n1 [compound 641, 4-{[6-(2-ethylpyrazolo[1,5-a]pyridin-3-yl)pyrazin-2-yl]amino}benzonitrile]
10 to 100 | CCc1nn2ccccc2c1-c1cncc(Nc2ccc(C(=O)OC)cc2)n1 [compound 642, methyl 4-{[6-(2-ethylpyrazolo[1,5-a]pyridin-3-yl)pyrazin-2-yl]amino}benzoate]
10 to 100 | Cc1nc2ccccc2n1-c1cncc(Nc2ccc(C(F)(F)F)cc2F)n1 [compound 644, N-[2-fluoro-4-(trifluoromethyl)phenyl]-6-(2-methyl-1H-benzimidazol-1-yl)pyrazin-2-amine]
10 to 100 | Cc1nc2ccccc2n1-c1cncc(Nc2cc(F)c(C(F)(F)F)c(F)c2)n1 [compound 645, N-[3,5-difluoro-4-(trifluoromethyl)phenyl]-6-(2-methyl-1H-benzimidazol-1-yl)pyrazin-2-amine]
10 to 100 | Cc1nc2cc(F)c(F)cc2n1-c1cc(N)cc(Nc2ccc(OC(F)(F)F)cc2)n1 [compound 652, 6-(5,6-difluoro-2-methyl-1H-benzimidazol-1-yl)-N^2-[4-(trifluoromethoxy)phenyl]pyridine-2,4-diamine]
10 to 100 | Cc1nc2ccc(F)cc2n1-c1cncc(Nc2ccc(Cl)c(F)c2)n1 [compound 654, N-(4-chloro-3-fluorophenyl)-6-(6-fluoro-2-methyl-1H-benzimidazol-1-yl)pyrazin-2-amine]
10 to 100 | COc1ccc(Nc2cc(N)cc(-n3c(C)nc4cc(F)c(F)cc43)n2)cc1 [compound 656, 6-(5,6-difluoro-2-methyl-1H-benzimidazol-1-yl)-N^2-(4-methoxyphenyl)pyridine-2,4-diamine]
10 to 100 | Cc1ccc(Nc2cc(N)cc(-n3c(C)nc4cc(F)c(F)cc43)n2)cc1 [compound 657, 6-(5,6-difluoro-2-methyl-1H-benzimidazol-1-yl)-N^2-(4-methylphenyl)pyridine-2,4-diamine]
10 to 100 | Cc1nc2cc(F)c(F)cc2n1-c1cc(N)cc(Nc2ccc(Cl)cc2)n1 [compound 658, N^2-(4-chlorophenyl)-6-(5,6-difluoro-2-methyl-1H-benzimidazol-1-yl)pyridine-2,4-diamine]
10 to 100 | Cc1nc2ccccc2n1-c1cncc(Nc2ccc(OC(C)C)cc2)n1 [compound 660, 6-(2-methyl-1H-benzimidazol-1-yl)-N-[4-(propan-2-yloxy)phenyl]pyrazin-2-amine]
10 to 100 | Cc1nc2ccccc2n1-c1cncc(Nc2ccc(C(C)C)cc2)n1 [compound 661, 6-(2-methyl-1H-benzimidazol-1-yl)-N-[4-(propan-2-yl)phenyl]pyrazin-2-amine]

Same assay, conditions: read-out: ELISA EC50 value for Bmi-1 protein, Table 1, Bmi-1 sandwich ELISA

Compound | EC50 [nM]
CS(=O)(=O)c1ccc(Nc2cncc(-c3c(C(F)(F)F)nc4ccccn34)n2)cc1 [compound 68, N-[4-(methylsulfonyl)phenyl]-6-[2-(trifluoromethyl)imidazo[1,2-a]pyridin-3-yl]pyrazin-2-amine] | 100 to 3000
